Measurements: US10723741B1, “DNA polymerase IIIC inhibitors and use thereof” (Acurx Pharmaceuticals, LLC, priority 2018, dated 2020)
In brackets after ≈: the same amount, converted by molar mass.

How the values were obtained:
Assay type in all cases: cell-based
[1] = test system: Staphylococcus aureus NRS384 (MRSA); assay: Broth microdilution MIC, S. aureus NRS384 (MRSA); settings: Staphylococcus aureus; S. aureus NRS 384; broth microdilution, 37° C., 20 hours; read-out: MIC NRS 384 (MRSA)
Procedure, shortened: (§1)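 Two-fold dilutions from 64 to 0.0625 μg/ml final, 1% DMSO, were inoculated at ~5.0×10^5 cfu/ml in the strain's test medium and kept 20 h at 37 °C in ambient atmosphere. Colonies were grown on MHA, with S. pneumoniae on blood agar under 5% CO2.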

[2] = test system: Staphylococcus aureus ATCC 29213 (MSSA); assay: Broth microdilution MIC, S. aureus ATCC 29213 (MSSA); settings: broth microdilution, 37° C., 20 hours, read-out: MIC S. aureus ATCC 29213 (MSSA)
Procedure, shortened: as §1

[3] = test system: Enterococcus faecalis ATCC 29212; assay: Broth microdilution MIC, E. faecalis ATCC 29212; settings: ATCC29212, broth microdilution, 37° C., 20 hours, read-out: MIC E. faecalis ATCC 29212
Procedure, shortened: as §1

[4] = test system: Enterococcus faecium ATCC 700221 (VRE); assay: Broth microdilution MIC, E. faecium ATCC 700221 (VRE); settings: Enterococcus faecium; broth microdilution, 37° C., 20 hours; read-out: MIC E. faecium ATCC 700221 (VRE)
Procedure, shortened: as §1

[5] = test system: Streptococcus pneumoniae ATCC 49619; assay: Broth microdilution MIC, S. pneumoniae ATCC 49619; settings: ATCC49619, broth microdilution, 37° C., 20 hours, read-out: MIC S. pneumoniae ATCC 49619
Procedure, shortened: as §1

[6] = test system: Bacillus subtilis ATCC 6633; assay: Broth microdilution MIC, B. subtilis ATCC 6633; settings: ATCC6633, broth microdilution, 37° C., 20 hours, read-out: MIC B. subtilis ATCC 6633
Procedure, shortened: as §1

[7] = test system: Escherichia coli ATCC 25922; assay: Broth microdilution MIC, E. coli ATCC 25922 (MHIIB w & w/o 4 mM EDTA); settings: broth microdilution, 37° C., 20 hours; for MIC: Escherichia coli, ATCC25922, without EDTA, read-out: MIC E. coli ATCC 25922; for MIC E. coli ATCC 25922 + 4 mM EDTA: with 4 mM EDTA
Procedure, shortened: as §1

CP(C)(=O)CCCCn1nc(F)c2nc(NCc3ccc(F)c(F)c3)[nH]c(=O)c21 [Compound 314, 5-[(3,4-Difluorophenyl)methylamino]-1-(4-dimethylphosphorylbutyl)-3-fluoro-6H-pyrazolo[4,3-d]pyrimidin-7-one]
MIC [1]: 32 µg/mL (≈ 74.9 µM)
MIC [2]: 64 µg/mL (≈ 150 µM)
MIC [3]: > 64 µg/mL
MIC [4]: 32 µg/mL (≈ 74.9 µM)
MIC [5]: 16 µg/mL (≈ 37.4 µM)
MIC [6]: 16 µg/mL (≈ 37.4 µM)
MIC [7]: > 64 µg/mL
MIC E. coli ATCC 25922 + 4 mM EDTA [7]: >64 µg/mL

O=c1[nH]c(NCc2ccc(F)c(F)c2)nc2c(F)nn(CC3CCO3)c12 (centres unmarked) [Compound 315, 5-[(3,4-difluorophenyl)methylamino]-3-fluoro-1-(oxetan-2-ylmethyl)-6H-pyrazolo[4,3-d]pyrimidin-7-one]
MIC [1]: 4 µg/mL (≈ 10.9 µM)
MIC [2]: 4 µg/mL (≈ 10.9 µM)
MIC [3]: 8 µg/mL (≈ 21.9 µM)
MIC [4]: 2 µg/mL (≈ 5.47 µM)
MIC [5]: 2 µg/mL (≈ 5.47 µM)
MIC [6]: 1 µg/mL (≈ 2.74 µM)
MIC [7]: > 64 µg/mL
MIC E. coli ATCC 25922 + 4 mM EDTA [7]: >64 µg/mL

O=c1[nH]c(NCc2ccc(F)c(F)c2)nc2c(F)nn(Cc3cocn3)c12 [Compound 316, 5-((3,4-Difluorobenzyl)amino)-3-fluoro-1-(oxazol-4-ylmethyl)-1H-pyrazolo[4,3-d]pyrimidin-7(6H)-one]
MIC [1]: 2 µg/mL (≈ 5.31 µM)
MIC [2]: 4 µg/mL (≈ 10.6 µM)
MIC [3]: 8 µg/mL (≈ 21.3 µM)
MIC [4]: 4 µg/mL (≈ 10.6 µM)
MIC [5]: 2 µg/mL (≈ 5.31 µM)
MIC [6]: 2 µg/mL (≈ 5.31 µM)
MIC [7]: > 64 µg/mL
MIC E. coli ATCC 25922 + 4 mM EDTA [7]: >64 µg/mL

O=C(c1cccnc1)N1CCC(n2nc(F)c3nc(NCc4ccc(Cl)c(Cl)c4)[nH]c(=O)c32)CC1 [Compound 317, 5-[(3,4-Dichlorophenyl)methylamino]-3-fluoro-1-[1-(pyridine-3-carbonyl)-4-piperidyl]-6H-pyrazolo[4,3-d]pyrimidin-7-one]
MIC [1]: 4 µg/mL (≈ 7.75 µM)
MIC [2]: 4 µg/mL (≈ 7.75 µM)
MIC [3]: 4 µg/mL (≈ 7.75 µM)
MIC [4]: 2 µg/mL (≈ 3.87 µM)
MIC [5]: 4 µg/mL (≈ 7.75 µM)
MIC [6]: 1 µg/mL (≈ 1.94 µM)
MIC [7]: > 64 µg/mL
MIC E. coli ATCC 25922 + 4 mM EDTA [7]: >64 µg/mL

O=C(c1cccnc1)N1CCC(n2nc(Cl)c3nc(NCc4ccc(Cl)c(Cl)c4)[nH]c(=O)c32)CC1 [Compound 318, 3-Chloro-5-[(3,4-dichlorophenyl)methylamino]-1-[1-(pyridine-3-carbonyl)-4-piperidyl]-6H-pyrazolo[4,3-d]pyrimidin-7-one]
MIC [1]: 2 µg/mL (≈ 3.75 µM)
MIC [2]: 2 µg/mL (≈ 3.75 µM)
MIC [3]: 2 µg/mL (≈ 3.75 µM)
MIC [4]: 1 µg/mL (≈ 1.88 µM)
MIC [5]: 4 µg/mL (≈ 7.51 µM)
MIC [6]: 1 µg/mL (≈ 1.88 µM)
MIC [7]: > 64 µg/mL
MIC E. coli ATCC 25922 + 4 mM EDTA [7]: >64 µg/mL

Cl.O=C(c1ccncc1)N1CCC(n2nc(F)c3nc(NCc4ccc(F)c(F)c4)[nH]c(=O)c32)CC1 [Compound 319, 5-((3,4-difluorobenzyl)amino)-3-fluoro-1-(1-isonicotinoylpiperidin-4-yl)-1H-pyrazolo[4,3-d]pyrimidin-7(6H)-one hydrochloride]
MIC [1]: 8 µg/mL
MIC [2]: 8 µg/mL
MIC [3]: 8 µg/mL
MIC [4]: 4 µg/mL
MIC [5]: 4 µg/mL
MIC [6]: 2 µg/mL
MIC [7]: > 64 µg/mL
MIC E. coli ATCC 25922 + 4 mM EDTA [7]: >64 µg/mL

O=c1c2c(cnn2CCOCCO)nc(NCc2ccc(Cl)c(Cl)c2)n1COP(=O)(O)O [Compound 320, (5-((3,4-dichlorobenzyl)amino)-1-(2-(2-hydroxyethoxy)ethyl)-7-oxo-1H-pyrazolo[4,3-d]pyrimidin-6(7H)-yl)methyl dihydrogen phosphate]
MIC [1]: > 64 µg/mL
MIC [2]: > 64 µg/mL
MIC [3]: > 64 µg/mL
MIC [4]: > 64 µg/mL
MIC [5]: > 64 µg/mL
MIC [6]: > 64 µg/mL
MIC [7]: > 64 µg/mL
MIC E. coli ATCC 25922 + 4 mM EDTA [7]: >64 µg/mL
